Measurements reported in patent publication EP0354046A2 (MAY & BAKER LIMITED, priority 1988, dated 1990).

Experiments:
Format in all cases: in vivo
Abutilon theophrasti = assay: Glasshouse experiment 3, % inhibition of growth (fresh weight, 19 days); conditions: for % inhibition of growth Abutilon theophrasti 1-2 leaves: Compound 126 0 g/ha; for ED₅₀ Abutilon theophrasti 1-2 leaves: applied alone
Procedure: (§1) A series of experiments was carried out to determine the nature of the biological interaction between bromoxynil and five compounds of general formula I on a range of weed species. The 3-benzoyl-piperidine-2,4-dione derivatives were compounds 1, 74, 99, 110 and 126. […] The growth stages of the plants at spraying are also presented with the results. Agricultural surfactant (nonyl phenol ethylene oxide condensate containing 9 moles ethylene oxide marketed as 'Agral') was added to all spray dilutions to give 0.2% v/v concentration.
(§2) After spraying the pots were arranged in randomised blocks in a glasshouse and watered as necessary. After 19 days the fresh weight of vegetation in each pot was determined. The mean fresh weights were used to calculate the percentage inhibition of each species thus [formula]
(§3) E = X + Y […] where E, X and Y are percentage inhibition of growth.
(§4) The ED values were then used to plot an isobole for each species according to the method of P.M.L. Tammes op cit. The results of percentage inhibition of growth, the ED values calculated from them and the calculated expected values are given in Tables 1-8.

Brassica kaber = assay: as above; conditions: for % inhibition of growth Brassica kaber 2-3 leaves: Compound 126 0 g/ha; for ED₉₀ Brassica kaber 2-3 leaves: applied alone
Procedure: as §1, §2, §3, §4

Amaranthus retroflexus = assay: as above; conditions: for % inhibition of growth Amaranthus retroflexus 2-4 leaves: Compound 126 0 g/ha; for ED₉₀ Amaranthus retroflexus 2-4 leaves: applied alone
Procedure: as §1, §2, §3, §4

maize var. Irla = assay: Glasshouse experiment 4, percentage phytotoxicity on crop after 11 days; conditions: for % crop phytotoxicity Maize (3-4 leaves): Bromoxynil 0 g/ha; for ED₂₀ crop phytotoxicity Maize (3-4 leaves): applied alone
Procedure: Agricultural surfactant ('Agral') was added to the spray dilutions to give 0.2%v/v concentration.
After spraying the pots were arranged in randomised blocks in a glasshouse and water as necessary. After 11 days the plants were assessed for percentage phytotoxicity (reduction in green area compared with unsprayed plants (0 = no effect 100 = complete destruction).
E = X + Y […] where E, X and Y are percentage phytotoxicity.
The ED values were then used to plot an isobole for each mixture according to the method of P.M.L. Tammes op cit.

Chenopodium album = assay: Glasshouse experiment 3, % inhibition of growth (fresh weight, 19 days); conditions: 2-6 leaves
Procedure: as §1, §2, §3, §4

Solanum nigrum = assay: as above; conditions: 2-3 leaves
Procedure: as §1, §2, §3, §4

Eleusine indica = assay: as above
Procedure: as §1, §2, §3, §4

Echinochloa crus-galli [1] = assay: as above; conditions: 3 leaves
Procedure: as §1, §2, §3, §4

Digitaria sanguinalis = assay: as above; conditions: for ED₉₀: 3 leaves; for ED₅₀: 3-4 leaves
Procedure: as §1, §2, §3, §4

Echinochloa crus-galli [2] = assay: Glasshouse experiment 2, percentage phytotoxicity after 19 days
Procedure: Agricultural surfactant-nonylphenol ethylene oxide condensate containing 9 moles ethylene oxide was added to all spray dilutions to give 0.2% v/v concentration.
After spraying, the pots were arranged in randomised blocks in a glasshouse, watered as necessary, and assessed after 19 days for percentage phytotoxicity (reduction in green area compared with unsprayed plants) (0 = no effect; 100 = complete destruction).
The results were then used to plot an isobole with a "one-sided effect" according to the methods of P.M.L. Tammes op.cit.

[3] = test system: Digitaria horizontalis (DIGHO); assay: Field experiment, post-emergence spray, % control of grass weed; conditions: 29 days after application
Procedure: (§5) The following control figures were recorded on the grass weeds Brachiaria plantaginea (BRAPL), Digitaria horizontalis (DIGHO) and Eleusine indica (ELEIN) 29 days after application.

[4] = test system: Brachiaria plantaginea (BRAPL); assay: as above; conditions: 29 days after application
Procedure: as §5

Eleusine indica (ELEIN) = assay: as above; conditions: 29 days after application
Procedure: as §5

[5] = Bromoxynil alone 2,4,8,16,31 g/ha
[6] = Bromoxynil alone, 2 leaves, Table 6
[7] = Bromoxynil alone, 2 leaves, Table 7
[8] = Abutilon theophrasti, read-out: % inhibition of growth Abutilon theophrasti 1-2 leaves
[9] = Mutarda arvensis, read-out: % inhibition of growth Brassica kaber 2-3 leaves
[10] = Amaranthus retroflexus, read-out: % inhibition of growth Amaranthus retroflexus 2-4 leaves

CC1(C)CC(=O)C(C(=O)c2ccc(C(F)(F)F)cc2[N+](=O)[O-])C(=O)N1 (stereo not shown) [Compound 99, 3-(2-nitro-4-trifluoromethylbenzoyl)-6,6-dimethylpiperidine-2,4-dione]
ED₉₀ (Abutilon theophrasti; Compound 99 alone, 1-2 leaves): ED₉₀(g/ha) 23.6 | ED₉₀ (Brassica kaber; Compound 99 alone, 2 leaves): ED₉₀(g/ha) 54.9 | ED₉₀ (Amaranthus retroflexus; Compound 99 alone, 2 leaves): ED₉₀(g/ha) 16.8 | % crop phytotoxicity Maize (3-4 leaves) (maize var. Irla; Compound (74 or 99) 63 g/ha): 0% | % crop phytotoxicity Maize (3-4 leaves) (maize var. Irla; Compound (74 or 99) 125 g/ha): 0% | % crop phytotoxicity Maize (3-4 leaves) (maize var. Irla; Compound (74 or 99) 250 g/ha): 0% | % crop phytotoxicity Maize (3-4 leaves) (maize var. Irla; Compound (74 or 99) 500 g/ha): 4% | % crop phytotoxicity Maize (3-4 leaves) (maize var. Irla; Compound (74 or 99) 1000 g/ha): 50% | % crop phytotoxicity Maize (3-4 leaves) (maize var. Irla; Compound (74 or 99) 2000 g/ha): 51% | ED₂₀ crop phytotoxicity Maize (3-4 leaves) (maize var. Irla): ED₂₀(g/ha) 797

O=C1CCNC(=O)C1C(=O)c1ccc(C(F)(F)F)cc1[N+](=O)[O-] (stereo not shown) [Compound 74, 3-(2-nitro-4-trifluoromethylbenzoyl)piperidine-2,4-dione]
ED₉₀ (Chenopodium album; Compound 74 alone): ED₉₀(g/ha) 3.67 | ED₉₀ (Abutilon theophrasti; Compound 74 alone, 1-2 leaves): ED₉₀(g/ha) 125.6 | ED₉₀ (Solanum nigrum; Compound 74 alone): ED₉₀(g/ha) 21.45 | ED₉₀ (Eleusine indica; Compound 74 alone, 3 leaves): ED₉₀(g/ha) 260.4 | ED₉₀ (Echinochloa crus-galli [1]; Compound 74 alone): ED₉₀(g/ha) 168.6 | ED₉₀ (Amaranthus retroflexus; Compound 74 alone, 2 leaves): ED₉₀(g/ha) 22.1 | ED₉₀ (Digitaria sanguinalis; Compound 74 alone): ED₉₀(g/ha) 180.4 | % crop phytotoxicity Maize (3-4 leaves) (maize var. Irla; Compound (74 or 99) 63 g/ha): 0% | % crop phytotoxicity Maize (3-4 leaves) (maize var. Irla; Compound (74 or 99) 125 g/ha): 0% | % crop phytotoxicity Maize (3-4 leaves) (maize var. Irla; Compound (74 or 99) 250 g/ha): 3% | % crop phytotoxicity Maize (3-4 leaves) (maize var. Irla; Compound (74 or 99) 500 g/ha): 6% | % crop phytotoxicity Maize (3-4 leaves) (maize var. Irla; Compound (74 or 99) 1000 g/ha): 17% | % crop phytotoxicity Maize (3-4 leaves) (maize var. Irla; Compound (74 or 99) 2000 g/ha): 63% | ED₂₀ crop phytotoxicity Maize (3-4 leaves) (maize var. Irla): ED₂₀(g/ha) 780 | ED₉₀ (Echinochloa crus-galli [2]; Compound 74 alone, dose giving 90% phytotoxicity): 82 g/ha

N#Cc1cc(Br)c(O)c(Br)c1 [Bromoxynil, 3,5-dibromo-4-hydroxybenzonitrile]
% control observed ([3]; Bromoxynil 250g/ha): 0% | % control observed ([4]; Bromoxynil 250g/ha): 0% | % control observed (Eleusine indica (ELEIN); Bromoxynil 250g/ha): 0% | % inhibition of growth (Chenopodium album; [5]): 21% | ED₉₀ (Chenopodium album; Bromoxynil alone): ED₉₀(g/ha) 69.34 | ED₉₀ (Abutilon theophrasti; Bromoxynil alone, 1-2 leaves, Table 5): ED₉₀(g/ha) 119.9 | ED₉₀ (Abutilon theophrasti; Bromoxynil alone, 1-2 leaves, Table 6): ED₉₀(g/ha) 129.6 | ED₅₀ (Abutilon theophrasti; Bromoxynil alone, 1-2 leaves, Table 7): ED₅₀(g/ha) 78.6 | ED₅₀ (Abutilon theophrasti; Bromoxynil alone, 3 leaves, Table 1): ED₅₀(g/ha) 106.3 | % inhibition of growth Abutilon theophrasti 1-2 leaves (Abutilon theophrasti; Bromoxynil 18 g/ha): 0% | % inhibition of growth Abutilon theophrasti 1-2 leaves (Abutilon theophrasti; Bromoxynil 35 g/ha): 13% | % inhibition of growth Abutilon theophrasti 1-2 leaves (Abutilon theophrasti; Bromoxynil 70 g/ha): 44% | % inhibition of growth Abutilon theophrasti 1-2 leaves (Abutilon theophrasti; Bromoxynil 140 g/ha): 96% | % inhibition of growth Abutilon theophrasti 1-2 leaves (Abutilon theophrasti; Bromoxynil 280 g/ha): 99% | ED₅₀ Abutilon theophrasti 1-2 leaves (Abutilon theophrasti): ED₅₀(g/ha) 135.7 | % inhibition of growth (Solanum nigrum; [5]): 91% | ED₉₀ (Solanum nigrum; Bromoxynil alone): ED₉₀(g/ha) 21.27 | ED₉₀ (Eleusine indica; Bromoxynil alone, 3-4 leaves, Table 2): ED₉₀ (g/ha) ∞ | ED₉₀ (Eleusine indica; Bromoxynil alone, 3 leaves, Table 3): ED₉₀(g/ha) ∞ | ED₉₀ (Brassica kaber; Bromoxynil alone, 2-3 leaves, Table 1): ED₉₀(g/ha) 67.0 | ED₉₀ (Brassica kaber; [6]): ED₉₀(g/ha) 42.7 | ED₉₀ (Brassica kaber; [7]): ED₉₀(g/ha) 63.9 | % inhibition of growth Brassica kaber 2-3 leaves (Brassica kaber; Bromoxynil 18 g/ha): 30% | % inhibition of growth Brassica kaber 2-3 leaves (Brassica kaber; Bromoxynil 35 g/ha): 55% | % inhibition of growth Brassica kaber 2-3 leaves (Brassica kaber; Bromoxynil 70 g/ha): 82% | % inhibition of growth Brassica kaber 2-3 leaves (Brassica kaber; Bromoxynil 140 g/ha): 97% | % inhibition of growth Brassica kaber 2-3 leaves (Brassica kaber; Bromoxynil 280 g/ha): 98% | ED₉₀ Brassica kaber 2-3 leaves (Brassica kaber): ED₉₀(g/ha) 102.4 | ED₉₀ (Echinochloa crus-galli [1]; Bromoxynil alone, Table 3): ED₉₀(g/ha) ∞ | ED₉₀ (Amaranthus retroflexus; Bromoxynil alone, 2 leaves, Table 1): ED₉₀(g/ha) 120.3 | ED₉₀ (Amaranthus retroflexus; Bromoxynil alone, 2 leaves, Table 5): ED₉₀(g/ha) 142.8 | ED₉₀ (Amaranthus retroflexus; [6]): ED₉₀(g/ha) 142.9 | ED₉₀ (Amaranthus retroflexus; [7]): ED₉₀(g/ha) 246.2 | % inhibition of growth Amaranthus retroflexus 2-4 leaves (Amaranthus retroflexus; Bromoxynil 18 g/ha): 0% | % inhibition of growth Amaranthus retroflexus 2-4 leaves (Amaranthus retroflexus; Bromoxynil 35 g/ha): 4% | % inhibition of growth Amaranthus retroflexus 2-4 leaves (Amaranthus retroflexus; Bromoxynil 70 g/ha): 8% | % inhibition of growth Amaranthus retroflexus 2-4 leaves (Amaranthus retroflexus; Bromoxynil 140 g/ha): 84% | % inhibition of growth Amaranthus retroflexus 2-4 leaves (Amaranthus retroflexus; Bromoxynil 280 g/ha): 90% | ED₉₀ Amaranthus retroflexus 2-4 leaves (Amaranthus retroflexus): ED₉₀(g/ha) 233.3 | ED₅₀ (Digitaria sanguinalis; Bromoxynil alone, Table 2): ED₅₀ (g/ha) ∞ | ED₉₀ (Digitaria sanguinalis; Bromoxynil alone, Table 3): ED₉₀(g/ha) ∞ | activity on Echinochloa crus-galli (Echinochloa crus-galli [2]; applied alone): no activity

CC1(C)CC(=O)C(C(=O)c2ccc(Cl)cc2[N+](=O)[O-])C(=O)N1 (stereo not shown) [Compound 1, 3-(4-chloro-2-nitrobenzoyl)-6,6-dimethylpiperidine-2,4-dione]
% control observed ([3]; Compound 1 @ 250g/ha): 70% | % control observed ([3]; Compound 1 @ 500g/ha): 80% | % control observed ([4]; Compound 1 @ 250g/ha): 60% | % control observed ([4]; Compound 1 @ 500g/ha): 80% | % control observed (Eleusine indica (ELEIN); Compound 1 @ 250g/ha): 70% | % control observed (Eleusine indica (ELEIN); Compound 1 @ 500g/ha): 80% | ED₅₀ (Abutilon theophrasti; Compound 1 alone, 3 leaves): ED₅₀(g/ha) 21.1 | ED₉₀ (Eleusine indica; Compound 1 alone, 3-4 leaves): ED₉₀ (g/ha) 66.8 | ED₉₀ (Brassica kaber; Compound 1 alone, 2-3 leaves): ED₉₀(g/ha) 58.1 | ED₉₀ (Amaranthus retroflexus; Compound 1 alone, 2 leaves): ED₉₀(g/ha) 21.6 | ED₅₀ (Digitaria sanguinalis; Compound 1 alone): ED₅₀ (g/ha) 21.6

CS(=O)(=O)c1ccc(C(=O)C2C(=O)CCNC2=O)c(Cl)c1 (stereo not shown) [Compound 126, 3-(2-chloro-4-methylsulphonylbenzoyl)piperidine-2,4-dione]
inhibition at 1 g/ha (Abutilon theophrasti; [8]): 0% | inhibition at 2 g/ha (Abutilon theophrasti; [8]): 38% | inhibition at 4 g/ha (Abutilon theophrasti; [8]): 56% | inhibition at 8 g/ha (Abutilon theophrasti; [8]): 68% | inhibition at 16 g/ha (Abutilon theophrasti; [8]): 88% | inhibition at 31 g/ha (Abutilon theophrasti; [8]): 94% | inhibition at 63 g/ha (Abutilon theophrasti; [8]): 96% | ED₅₀ Abutilon theophrasti 1-2 leaves (Abutilon theophrasti): ED₅₀(g/ha) 20.1 | inhibition at 1 g/ha (Brassica kaber; [9]): 0% | inhibition at 2 g/ha (Brassica kaber; [9]): 0% | inhibition at 4 g/ha (Brassica kaber; [9]): 0% | inhibition at 8 g/ha (Brassica kaber; [9]): 17% | inhibition at 16 g/ha (Brassica kaber; [9]): 26% | inhibition at 31 g/ha (Brassica kaber; [9]): 48% | inhibition at 63 g/ha (Brassica kaber; [9]): 80% | ED₉₀ Brassica kaber 2-3 leaves (Brassica kaber): ED₉₀(g/ha) 90.6 | inhibition at 1 g/ha (Amaranthus retroflexus; [10]): 0% | inhibition at 2 g/ha (Amaranthus retroflexus; [10]): 50% | inhibition at 4 g/ha (Amaranthus retroflexus; [10]): 91% | inhibition at 8 g/ha (Amaranthus retroflexus; [10]): 91% | inhibition at 16 g/ha (Amaranthus retroflexus; [10]): 99% | inhibition at 31 g/ha (Amaranthus retroflexus; [10]): 100% | inhibition at 63 g/ha (Amaranthus retroflexus; [10]): 100% | ED₉₀ Amaranthus retroflexus 2-4 leaves (Amaranthus retroflexus): ED₉₀(g/ha) 7.6

CS(=O)(=O)c1ccc(C(=O)C2C(=O)CCNC2=O)c([N+](=O)[O-])c1 (stereo not shown) [Compound 110, 3-(4-methylsulphonyl-2-nitrobenzoyl)piperidine-2,4-dione]
ED₅₀ (Abutilon theophrasti; Compound 110 alone, 1-2 leaves): ED₅₀(g/ha) 22.3 | ED₉₀ (Brassica kaber; Compound 110 alone, 2 leaves): ED₉₀(g/ha) 13.6 | % inhibition of growth (Amaranthus retroflexus; Compound 110 alone 1,2,4,8,16,31,63 g/ha, 2 leaves): 100% | ED₉₀ (Amaranthus retroflexus; Compound 110 alone, 2 leaves): ED₉₀(g/ha) 12.6
